Results: US8597922B2, “Methods and compositions for producing olefins” (LS9, Inc., priority 2007, dated 2013)

Key:
[1] = test system: ORF880; experiment: In vitro reaction rates of purified ORF880 with different fatty acid substrates; format: biochemical, Jeotgalicoccus sp. ATCC8456; conditions: 1.0 μM ORF880, 200 μM fatty acid salt, pH 7.2, room temperature, between 20 min and 47 min
Experimental: The genomic DNA encoding Jeotgalicoccus sp. ATCC8456_orf880 was cloned into the NdeI and XhoI sites of vector pET15b (Novagen) under the control of the T7 promoter for expression in and purification from E. coli. This plasmid expressed an N-terminal His-tagged version of 8456_orf880.
An E. coli BL21 strain (DE3) (Invitrogen) was transformed with pET15b-orf880 using routine chemical transformation techniques. Protein expression was carried out by first inoculating a colony of the E. coli strain in 5 mL of LB media supplemented with 100 mg/L of carbenecillin and shaken overnight at 37° C. to produce a starter culture. This starter culture was used to inoculate 1 L of LB media supplemented with 100 mg/L of carbenecillin. The culture was shaken at 37° C. until an OD600 value of 0.6 was reached. The culture was placed on ice for 10 min before IPTG was added to a final concentration of 250 μM. The culture was then shaken at 18° C. for approximately 18 h. The culture was then centrifuged at 3,700 rpm for 20 min at 4° C. The pellet was then resuspended in 30 mL of buffer containing 100 mM sodium phosphate buffer at pH 7.2 supplemented with Bacterial ProteaseArrest (GBiosciences). The cells were then sonicated at 12 W on ice for 9 sec with 1.5 sec of sonication followed by 1.5 sec of rest. This procedure was repeated 5 times with one min intervals between each sonication cycle. The cell free extract was centrifuged at 10,000 rpm for 30 min at 4° C. 5 mL of Ni-NTA (Qiagen) was added to the supernatant and the mixture was gently stirred at 4° C. The slurry was passed over a column removing the resin from the lysate. The resin was then washed with 30 mL of buffer containing 100 mM sodium phosphate buffer at pH 7.2 plus 30 mM imidazole. Finally, the protein was eluted with 15 mL of 100 mM sodium phosphate buffer at pH 7.2 plus 250 mM imidazole. The protein solution was dialyzed with 200 volumes of 100 mM sodium phosphate buffer at pH 7.2. Protein concentration was determined using the Bradford assay (Biorad). 125 μg/mL of protein was obtained.
In order to assay the in vitro fatty acid substrate specificity of ORF880, potassium salts of the following fatty acids were prepared: tetradecanoic acid, hexadecanoic acid, octadecanoic acid, eicosanoic acid, and behenic acid (Sigma). The fatty acid solutions were made with 2% ethanol and 2% Tergitol solution (Sigma, St. Louis, Mo.) to a final concentration of 20 mM.
The kinetics of the decarboxylation reaction was determined using potassium octadecanoate. A 200 μL reaction was prepared with the following reactant concentrations: 1.25 μM of ORF880, 200 μM of potassium octadecanoate, […], and 100 mM sodium phosphate buffer at pH 7.2. […] Samples were analyzed using GC/MS using the alkane-1 splitless method, which is performed using the following parameters: run time: 20 min; column: HP-5-MS Part No. 19091S-433E (length of 30 meters; I.D.: 0.25 mm narrowbore; film: 0.25 μM); sample: standard ethyl acetate extraction; inject: 1 μL Agilent 6850 inlet; inlet: 300° C. splitless; carrier gas: helium; flow: 1.3 mL/min; oven temp: 100° C. hold 5 min, 320 at 20° C./min, 320 hold 5 min; det: Agilent 5975B VL MSD; det. temp: 300° C.; scan: 50-500 M/Z. Calibration curves were generated using 1-heptadecene dissolved in ethyl acetate. Based upon this analysis, the product production was determined to be linear from 5 min to 60 min. […]

[2] = test system: ATCC 8456 cell free extract; experiment: Conversion of free fatty acids into α-olefins by ATCC 8456 cell free extract; format: biochemical, Jeotgalicoccus sp. ATCC 8456; conditions: for α-olefin formed from the fatty acid by cell free extract: 1 mM free fatty acid salt, room temperature, 3 h
Experimental: A cell free extract of ATCC 8456 was used to convert free fatty acids into α-olefins. The cell free extract was generated using the following procedure: ATCC 8456 cells were grown in TSBYE medium (3% Tryptic Soy Broth+0.5% Yeast Extract) at 30° C. for 24 h with shaking. The cells were then pelleted from the culture by centrifuging at 3,700 rpm for 20 min. The cell pellet was then resuspended in 50 mM Tris buffer pH 7.5 with 0.1 M NaCl and 2.0 mM dithiothreitol to a concentration of 0.1 g/mL cells. To this cell slurry, 200 units/mL of lysostaphin (Sigma) were added on ice. The cell lysis reaction was allowed to proceed for 30 min. The cells were then sonicated at 12 W on ice for three cycles of 1.5 sec of sonication followed by 1.5 sec of rest. Sonication lasted for a total of 9 sec. This procedure was repeated 5 times with a 1 min interval between each sonication cycle. The lysed cells were then centrifuged at 12,000 rpm for 10 min to pellet the cell debris. The supernatant (i.e., cell free extract) was then removed and used for the conversion of free fatty acids to α-olefins.
First, a 5% stock solution of sodium or potassium stearate was made in 1% Tergitol solution (Sigma, St. Louis, Mo.). Next, 6 μL of the stock solution was added to 1 mL of the cell free extract at room temperature to obtain a final concentration of 1 mM free fatty acid salt. The reaction was conducted at room temperature for 3 h. The α-olefins were recovered by adding 200 μL of ethyl acetate to the mixture, vortexing briefly, centrifuging briefly, and then removing the organic phase. The α-olefins were detected using GC/MS.
In sample 1 (TIC1; black line in FIG. 5), no stearic acid was added to the cell free extract. In sample 2 (TIC3; blue line in FIG. 5), the cell free extract was replaced with 50 mM Tris pH 7.5 buffer with 0.1 M sodium chloride to which stearic acid was added. In sample 3 (TICS; red line in FIG. 5), stearic acid was added to the cell free extract. The peak at 7.62 min had the same retention time and the same mass spectra as a 1-heptadecene standard (Sigma). When eicosanoic acid was added under similar conditions, 1-nonadecene was formed.
When the cell free extract was supplemented with several co-factors in 1 mM concentrations, no increase in α-olefin synthesis was observed. The co-factors examined were NAD+, NADP+, NADH, NADPH, FADH2, SAM, ATP, and CoA. In addition, Mg^2+ was examined at a 10 mM concentration. The co-factor requirement was also tested by dialyzing the cell free extract with a 10 kDa cut-off membrane for 1.5 h in a volume 200-fold greater than the cell extract volume using a dialysis buffer: 50 mM Tris, pH 7.5 with 0.1 M sodium chloride. No decrease in α-olefin synthesis was observed after dialysis. Additionally, no decrease in α-olefin synthesis was observed when 10 mM EDTA pH 7.5 was added to the reaction mixture.

[3] = test system: ATCC 8456 cells; experiment: Fatty acid feeding of ATCC 8456 cells, α-olefins analyzed by GC-MS; format: cell-based, Jeotgalicoccus sp. ATCC 8456; conditions: fatty acid fed at 0.5 g/l (0.05%), 40-48 h at 30° C.; for α-olefin whose production increased upon fatty acid feeding: olefins not normally produced by ATCC 8456
Experimental: ATCC 8456 cells were grown in 15 mL TSBYE medium (3% Tryptic Soy Broth+0.5% Yeast Extract). Fatty acids were added to the culture medium at final concentrations of 0.5 g/l (0.05%). After growth for 40-48 h at 30° C., cells from 5 mL of culture were pelleted, resuspended in 1 mL methanol, sonicated for 30 min, and extracted with 4 mL hexane. After solvent evaporation, samples were resuspended in 0.1 mL hexane and analyzed by GC-MS.

SMILES | Activity (nM alkene produced/min) [1] [nM alkene produced/min] | effect of co-factor supplementation on α-olefin synthesis ([2]; co-factor at 1 mM) | other results
CCCCCCCCCCCCCCCCCCCCCC(=O)O [behenic acid] | 30.6 |  | 
Cc1cc2c(cc1C)N(C[C@H](O)[C@H](O)[C@H](O)COP(=O)(O)OP(=O)(O)OC[C@H]1O[C@@H](n3cnc4c(N)ncnc43)[C@H](O)[C@@H]1O)c1[nH]c(=O)[nH]c(=O)c1N2 [FADH2] |  | no increase | 
O=C(O)CN(CCN(CC(=O)O)CC(=O)O)CC(=O)O [EDTA] |  |  | effect on α-olefin synthesis when added to the reaction mixture ([2]; 10 mM, pH 7.5): no decrease
NC(=O)c1ccc[n+]([C@@H]2O[C@H](COP(=O)([O-])OP(=O)(O)OC[C@H]3O[C@@H](n4cnc5c(N)ncnc54)[C@H](O)[C@@H]3O)[C@@H](O)[C@H]2O)c1 [NAD+] |  | no increase | 
[Mg+2] [Mg^2+] |  |  | effect of co-factor supplementation on α-olefin synthesis ([2]; 10 mM concentration): no increase
CC(C)(COP(=O)(O)OP(=O)(O)OC[C@H]1O[C@@H](n2cnc3c(N)ncnc32)[C@H](O)[C@@H]1OP(=O)(O)O)[C@@H](O)C(=O)NCCC(=O)NCCS [CoA] |  | no increase | 
CCCCCCCCCCCCCCCCCCCC(=O)O [eicosanoic acid] | 19.7 |  | α-olefin formed from the fatty acid by cell free extract [2]: 1-nonadecene; increase in 1-nonodecene production ([3]; versus no fatty acid feeding): approximately 18 fold
CCCCCCCCCCCCCCCCCC(=O)O [octadecanoic acid] | 77.2 |  | α-olefin formed from the fatty acid by cell free extract [2]: 1-heptadecene; α-olefin whose production increased upon fatty acid feeding [3]: 1-pentadecene
C[S+](CC[C@H](N)C(=O)[O-])C[C@H]1O[C@@H](n2cnc3c(N)ncnc32)[C@H](O)[C@@H]1O (some centres unmarked) [SAM] |  | no increase | 
NC(=O)C1=CN([C@@H]2O[C@H](COP(=O)(O)OP(=O)(O)OC[C@H]3O[C@@H](n4cnc5c(N)ncnc54)[C@H](O)[C@@H]3O)[C@@H](O)[C@H]2O)C=CC1 [NADH] |  | no increase | 
NC(=O)C1=CN([C@@H]2O[C@H](COP(=O)(O)OP(=O)(O)OC[C@H]3O[C@@H](n4cnc5c(N)ncnc54)[C@H](OP(=O)(O)O)[C@@H]3O)[C@@H](O)[C@H]2O)C=CC1 [NADPH] |  | no increase | 
NC(=O)c1ccc[n+]([C@@H]2O[C@H](COP(=O)([O-])OP(=O)(O)OC[C@H]3O[C@@H](n4cnc5c(N)ncnc54)[C@H](OP(=O)(O)O)[C@@H]3O)[C@@H](O)[C@H]2O)c1 [NADP+] |  | no increase | 
Nc1ncnc2c1ncn2[C@@H]1O[C@H](COP(=O)(O)OP(=O)(O)OP(=O)(O)O)[C@@H](O)[C@H]1O [ATP] |  | no increase | 
CCCCCCCCCCCCCCCC(=O)O [hexadecanoic acid] | 181.9 |  | α-olefin whose production increased upon fatty acid feeding [3]: 1-heptadecene
CCCCCCCCCCCCCC(=O)O [tetradecanoic acid] | 22.9 |  | 
